# Assay results taken from publication PMC7887336, “Altered functional properties of the codling moth Orco mutagenized in the intracellular loop-3” (Scientific Reports, 2021).
# Residue numbers refer to the chain shown, from its start. Where two headings read alike, the source gives them in different places.
# How the values were obtained:
# CpomOrco+OR3 = molecular target: T1, CpomOrco+OR3 (Cydia pomonella, UniProt H9A5M3); experiment: Calcium imaging of HEK293T cells co-expressing CpomOrco and CpomOR3, pear ester stimulation; type: cell-based
# T1 sequence (H9A5M3 1-426): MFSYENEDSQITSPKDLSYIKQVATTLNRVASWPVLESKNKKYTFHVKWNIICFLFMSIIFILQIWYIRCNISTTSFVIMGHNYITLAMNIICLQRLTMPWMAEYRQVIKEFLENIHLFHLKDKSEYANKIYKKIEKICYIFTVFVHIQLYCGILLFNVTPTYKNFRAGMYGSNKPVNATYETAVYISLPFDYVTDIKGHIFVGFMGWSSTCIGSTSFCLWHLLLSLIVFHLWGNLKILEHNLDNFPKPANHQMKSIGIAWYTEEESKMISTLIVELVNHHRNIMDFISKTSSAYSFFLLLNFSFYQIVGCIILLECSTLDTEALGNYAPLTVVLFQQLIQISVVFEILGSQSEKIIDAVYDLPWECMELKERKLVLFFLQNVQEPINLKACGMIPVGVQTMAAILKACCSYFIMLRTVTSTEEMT
# T1 sequence (H9A5M2 1-473 partner): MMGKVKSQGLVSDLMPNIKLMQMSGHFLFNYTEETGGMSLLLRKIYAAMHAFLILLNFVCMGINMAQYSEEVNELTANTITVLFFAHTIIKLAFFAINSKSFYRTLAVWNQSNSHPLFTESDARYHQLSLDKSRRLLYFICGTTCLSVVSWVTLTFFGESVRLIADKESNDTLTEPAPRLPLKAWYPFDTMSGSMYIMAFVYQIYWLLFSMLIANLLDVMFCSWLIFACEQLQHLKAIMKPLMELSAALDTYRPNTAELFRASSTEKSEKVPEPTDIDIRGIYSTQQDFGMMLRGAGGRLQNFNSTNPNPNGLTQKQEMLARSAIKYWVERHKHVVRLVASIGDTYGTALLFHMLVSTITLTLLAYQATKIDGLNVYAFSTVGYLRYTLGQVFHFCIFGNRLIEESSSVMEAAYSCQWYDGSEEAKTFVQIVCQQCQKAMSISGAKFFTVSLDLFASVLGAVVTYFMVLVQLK
# Experimental: (§1) HEK293 cells lines (HEK293A/HEK293T) were grown in HEK cell media [Dulbecco's modified Eagle's medium containing 10% fetal bovine serum (MP Biomedicals, Solon, OH, USA), 2.0 mM L-glutamine, and 100 µg/mL penicillin/streptomycin (Invitrogen)] at 37 °C and 5% CO2. To test transient expression of wild type CpomOrco and CpomOrco^Q417H variant for calcium imaging and patch-clamp recording, 35-mm petri dishes containing semi-confluent HEK293A cells were transiently transfected. Cells were transfected with 0.6 µg of pcDNA40-DEST carrying the coding sequence of the CpomOrco variant (depending on the experiments). To report expression for calcium imaging experiments, 0.6 µg of a separate plasmid DNA [pEBFP2-Nuc, a gift from Robert Campbell (Addgene plasmid # 1489352)] carrying the coding sequence for a blue fluorescent protein (EBFP) was co-transfected. To report expression in patch-clamp recordings, 1.0 µg of a separate plasmid DNA (pXOOM, Clontech, Mountain View, CA, USA) carrying the coding sequence for a green fluorescent protein (GFP) was co-transfected. Expressions of fluorescent reporter genes were under the regulation of the same promoter for Cpom-genes (CMV). For specific experiments, co-transfections were conducted combining an additional 1.2 µg of pcDNA40-DEST/CpomOR3 or pcDNA40-DEST/CpomOR6a, as we previously described. Co-transfections with CpomOR3 were performed for dose–response experiments to pear ester: CpomOR3 was co-expressed with CpomOrco variants by the use of HEK293T (Fig. 3b); given the reported functional co-expression data of the CpomOrco + OR3 heteromers by the use of these specific cells. In brief, transfection DNAs were dissolved in 100 µL sterile DMEM, mixed with 3.0 µL Calfectin (SignaGen, Rockville, MD, USA) following the recommended protocol. Transfections were conducted overnight for up to 18 h, HEK cell media was replaced with 2.0 mL fresh media to incubate cells at 37 °C for up to 6–8 h, at which point part of the cell culture was spread in the middle of a 35-mm plate as individual cells or small clusters and rinsed at the sides with 2.0 mL fresh HEK media. After splitting, cells were allowed to recover for at least 1 day prior to calcium imaging. […]
# (§2) Fluorescence imaging was performed using settings optimized for Imaging Workbench 6 software (INDEC BioSystems, Santa Clara, CA, USA)[14]. […] Each cell was assigned a region of interest (ROI) and changes in fluorescence intensity within each ROI were measured and expressed as the fractional change in fluorescence intensity (dF). Stored time series image stacks were analysed off-line using Imaging Workbench 6, Clampfit 10.5 (Molecular Devices) and SigmaPlot 11 (Systat Software Inc., San Jose, CA, USA). […]
# CpomOrco^Q417H+OR3 = molecular target: T2, CpomOrco^Q417H+OR3 (Cydia pomonella, UniProt H9A5M3); experiment: Calcium imaging of HEK293T cells co-expressing CpomOrco^Q417H and CpomOR3, pear ester stimulation; type: cell-based
# T2 construct: variant as stated: Q417H
# T2 sequence (H9A5M3 1-426): T1 sequence (H9A5M3 1-426)
# T2 sequence (H9A5M2 1-473 Q417H partner): T1 sequence (H9A5M2 1-473 partner) with Q417H
# Experimental: as §1, §2
structure (smiles),measurement,setting,value
"CCCCC/C=C\C=C\C(=O)OCC [pear ester, ethyl (E,Z)-2,4 decadienoate]",Hill coefficient (cooperativity coefficient h),CpomOrco+OR3,~ 4.6
same,EC50,CpomOrco+OR3; Hill fit,~210 µM
same,maximum response (Hill fit of calcium response amplitudes),CpomOrco+OR3; N = 160 cells,~ 6.6 ± 0.3 ∆F
same,Hill coefficient (cooperativity coefficient h),CpomOrco+OR3; listed as Pear ester,~ 4.6 ± 2.4
same,Hill coefficient (cooperativity coefficient h),CpomOrco^Q417H+OR3,~ 4.6
same,EC50,CpomOrco^Q417H+OR3; Hill fit,~733 µM
same,maximum response (Hill fit of calcium response amplitudes),CpomOrco^Q417H+OR3; N = 262 cells,~3.7 ± 0.1 ∆F
same,Hill coefficient (cooperativity coefficient h),CpomOrco^Q417H+OR3; listed as Pear ester,~ 4.6 ± 0.4
